Assay results: ChEMBL document CHEMBL5291721, “A preclinical secondary pharmacology resource illuminates target-adverse drug reaction associations of marketed drugs” (Nat Commun, 2023)

Experiments:
B2 bradykinin receptor = target: T1, B2 bradykinin receptor (Homo sapiens, UniProt P30411)
T1 sequence (P30411 whole entry): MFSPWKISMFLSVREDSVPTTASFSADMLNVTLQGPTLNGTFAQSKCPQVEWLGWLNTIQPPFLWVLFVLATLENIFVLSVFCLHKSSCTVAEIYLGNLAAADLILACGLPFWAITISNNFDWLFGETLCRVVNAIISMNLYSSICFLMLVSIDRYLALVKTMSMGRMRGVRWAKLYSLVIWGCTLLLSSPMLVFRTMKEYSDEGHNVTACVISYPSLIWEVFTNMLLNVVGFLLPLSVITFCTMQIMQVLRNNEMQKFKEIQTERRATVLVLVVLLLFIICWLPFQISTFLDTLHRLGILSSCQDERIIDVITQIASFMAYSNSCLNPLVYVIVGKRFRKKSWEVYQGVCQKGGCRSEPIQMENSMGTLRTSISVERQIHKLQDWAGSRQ

[1] = target: T2, Amine oxidase [flavin-containing] A (Homo sapiens, UniProt P21397); format: functional
T2 sequence (P21397 whole entry): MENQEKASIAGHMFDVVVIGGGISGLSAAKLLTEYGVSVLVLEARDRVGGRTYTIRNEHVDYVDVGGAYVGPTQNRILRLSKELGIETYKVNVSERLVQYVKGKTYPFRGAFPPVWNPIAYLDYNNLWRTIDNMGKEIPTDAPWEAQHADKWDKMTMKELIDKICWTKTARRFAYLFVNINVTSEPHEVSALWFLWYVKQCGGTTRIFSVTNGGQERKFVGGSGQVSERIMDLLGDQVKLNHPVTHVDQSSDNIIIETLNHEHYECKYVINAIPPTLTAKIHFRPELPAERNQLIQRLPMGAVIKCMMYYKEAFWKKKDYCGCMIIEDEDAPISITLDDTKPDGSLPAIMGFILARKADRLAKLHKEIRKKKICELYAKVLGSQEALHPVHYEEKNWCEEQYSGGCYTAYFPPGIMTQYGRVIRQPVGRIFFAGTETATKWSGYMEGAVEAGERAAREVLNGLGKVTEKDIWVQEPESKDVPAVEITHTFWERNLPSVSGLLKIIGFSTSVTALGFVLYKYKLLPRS

[2] = target: T3, Muscarinic acetylcholine receptor M2 (Homo sapiens, UniProt P08172); format: functional, cell-based
T3 sequence (P08172 whole entry): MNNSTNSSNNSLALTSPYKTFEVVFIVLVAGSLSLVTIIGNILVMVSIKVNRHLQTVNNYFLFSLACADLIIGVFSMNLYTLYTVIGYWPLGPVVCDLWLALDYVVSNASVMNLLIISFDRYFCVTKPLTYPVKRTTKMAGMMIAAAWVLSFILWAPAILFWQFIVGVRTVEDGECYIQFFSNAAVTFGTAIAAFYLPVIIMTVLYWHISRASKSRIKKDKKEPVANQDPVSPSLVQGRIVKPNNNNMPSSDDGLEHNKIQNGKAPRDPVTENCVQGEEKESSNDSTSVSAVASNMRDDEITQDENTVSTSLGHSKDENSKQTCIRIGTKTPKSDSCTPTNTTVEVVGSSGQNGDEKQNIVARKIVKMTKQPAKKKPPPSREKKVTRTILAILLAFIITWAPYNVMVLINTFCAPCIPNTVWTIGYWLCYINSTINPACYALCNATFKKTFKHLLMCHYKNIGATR

[3] = target: T4, 5-hydroxytryptamine receptor 3A (Homo sapiens, UniProt P46098); format: functional
T4 sequence (P46098 whole entry): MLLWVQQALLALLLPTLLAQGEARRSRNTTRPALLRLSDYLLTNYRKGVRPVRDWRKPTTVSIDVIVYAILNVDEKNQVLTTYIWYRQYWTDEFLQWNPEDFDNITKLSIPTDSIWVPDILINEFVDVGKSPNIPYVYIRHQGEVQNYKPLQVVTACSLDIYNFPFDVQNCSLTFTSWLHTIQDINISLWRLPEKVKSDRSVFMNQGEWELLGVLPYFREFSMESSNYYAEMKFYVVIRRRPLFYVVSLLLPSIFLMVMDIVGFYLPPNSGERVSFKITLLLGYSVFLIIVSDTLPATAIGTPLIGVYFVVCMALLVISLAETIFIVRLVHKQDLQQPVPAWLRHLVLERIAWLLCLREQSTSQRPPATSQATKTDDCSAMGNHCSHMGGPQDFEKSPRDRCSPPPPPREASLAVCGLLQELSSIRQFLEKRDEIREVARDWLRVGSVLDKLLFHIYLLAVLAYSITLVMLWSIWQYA

[4] = target: Voltage-dependent L-type calcium channel subunit alpha-1C (Rattus norvegicus, UniProt P22002); format: functional
Sequence of Voltage-dependent L-type calcium channel subunit alpha-1C (P22002 whole entry): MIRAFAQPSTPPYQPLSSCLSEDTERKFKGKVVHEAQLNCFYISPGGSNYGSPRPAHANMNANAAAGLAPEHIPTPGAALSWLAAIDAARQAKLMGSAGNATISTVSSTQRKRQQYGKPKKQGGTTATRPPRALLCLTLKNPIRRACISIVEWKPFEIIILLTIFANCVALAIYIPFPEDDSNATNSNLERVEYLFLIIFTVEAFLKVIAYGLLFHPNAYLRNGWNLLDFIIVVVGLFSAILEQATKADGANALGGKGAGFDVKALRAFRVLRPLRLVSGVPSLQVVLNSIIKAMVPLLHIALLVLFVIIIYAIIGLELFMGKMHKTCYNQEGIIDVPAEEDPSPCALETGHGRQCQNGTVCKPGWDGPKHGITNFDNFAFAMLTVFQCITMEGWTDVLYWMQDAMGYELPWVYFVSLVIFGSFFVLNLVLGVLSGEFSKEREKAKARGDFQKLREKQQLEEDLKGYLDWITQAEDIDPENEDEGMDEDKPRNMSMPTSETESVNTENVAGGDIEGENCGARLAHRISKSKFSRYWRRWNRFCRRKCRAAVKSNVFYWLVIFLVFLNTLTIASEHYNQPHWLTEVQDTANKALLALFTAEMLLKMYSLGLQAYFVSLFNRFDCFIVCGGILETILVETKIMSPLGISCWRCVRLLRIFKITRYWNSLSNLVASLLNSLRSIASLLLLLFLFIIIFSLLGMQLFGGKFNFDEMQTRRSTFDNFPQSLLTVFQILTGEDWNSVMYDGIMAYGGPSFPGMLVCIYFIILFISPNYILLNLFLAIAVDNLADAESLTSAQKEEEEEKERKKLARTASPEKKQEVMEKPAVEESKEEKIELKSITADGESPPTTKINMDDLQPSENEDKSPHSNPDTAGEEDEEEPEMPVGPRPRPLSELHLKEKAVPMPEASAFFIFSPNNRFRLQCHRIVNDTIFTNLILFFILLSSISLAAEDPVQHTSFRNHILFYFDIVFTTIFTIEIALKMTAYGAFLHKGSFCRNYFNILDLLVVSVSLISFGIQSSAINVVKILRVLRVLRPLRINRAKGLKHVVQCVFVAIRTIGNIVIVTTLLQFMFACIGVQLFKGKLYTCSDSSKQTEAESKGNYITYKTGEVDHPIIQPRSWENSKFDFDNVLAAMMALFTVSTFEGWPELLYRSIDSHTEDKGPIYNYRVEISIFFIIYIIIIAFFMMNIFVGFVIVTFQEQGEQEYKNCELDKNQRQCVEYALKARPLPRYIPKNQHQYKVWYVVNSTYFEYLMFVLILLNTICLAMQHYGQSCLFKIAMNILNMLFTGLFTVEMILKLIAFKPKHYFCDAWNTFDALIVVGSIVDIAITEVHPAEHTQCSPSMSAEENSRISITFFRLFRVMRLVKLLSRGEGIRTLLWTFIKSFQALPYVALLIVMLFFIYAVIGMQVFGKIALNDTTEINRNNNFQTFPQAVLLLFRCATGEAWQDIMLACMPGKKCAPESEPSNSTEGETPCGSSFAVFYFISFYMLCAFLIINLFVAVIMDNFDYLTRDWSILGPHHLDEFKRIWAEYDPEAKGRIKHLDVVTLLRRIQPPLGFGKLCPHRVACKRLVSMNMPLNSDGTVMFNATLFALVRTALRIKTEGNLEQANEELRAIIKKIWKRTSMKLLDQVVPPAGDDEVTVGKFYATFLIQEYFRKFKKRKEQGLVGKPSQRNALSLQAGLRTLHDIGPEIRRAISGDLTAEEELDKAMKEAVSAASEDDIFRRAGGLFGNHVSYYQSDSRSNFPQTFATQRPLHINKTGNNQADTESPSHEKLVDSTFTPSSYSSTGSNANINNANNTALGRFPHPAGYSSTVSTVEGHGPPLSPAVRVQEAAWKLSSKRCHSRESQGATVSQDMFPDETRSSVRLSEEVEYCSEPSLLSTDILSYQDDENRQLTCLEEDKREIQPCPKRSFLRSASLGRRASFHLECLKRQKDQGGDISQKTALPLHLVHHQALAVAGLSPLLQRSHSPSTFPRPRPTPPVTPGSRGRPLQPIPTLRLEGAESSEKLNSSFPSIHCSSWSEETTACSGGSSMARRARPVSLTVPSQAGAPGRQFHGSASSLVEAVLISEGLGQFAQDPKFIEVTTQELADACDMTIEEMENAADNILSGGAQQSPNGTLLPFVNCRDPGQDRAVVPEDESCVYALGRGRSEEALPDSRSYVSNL

[5] = target: T5, Alpha-2A adrenergic receptor (Homo sapiens, UniProt P08913); format: functional, cell-based
T5 sequence (P08913 whole entry): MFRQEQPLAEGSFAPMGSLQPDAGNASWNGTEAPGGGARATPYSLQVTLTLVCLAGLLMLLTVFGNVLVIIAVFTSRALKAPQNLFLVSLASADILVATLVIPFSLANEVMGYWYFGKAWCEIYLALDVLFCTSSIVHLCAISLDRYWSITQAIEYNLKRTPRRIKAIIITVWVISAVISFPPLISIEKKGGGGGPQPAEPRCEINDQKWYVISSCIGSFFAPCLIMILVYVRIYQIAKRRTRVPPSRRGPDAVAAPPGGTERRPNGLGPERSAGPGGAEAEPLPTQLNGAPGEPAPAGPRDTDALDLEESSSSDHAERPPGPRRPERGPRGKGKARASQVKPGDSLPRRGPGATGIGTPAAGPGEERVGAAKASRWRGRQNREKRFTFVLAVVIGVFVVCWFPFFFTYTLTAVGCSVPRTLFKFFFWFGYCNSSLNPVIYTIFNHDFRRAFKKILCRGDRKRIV

Melanocortin receptor 3 = Melanocortin receptor 3 (Homo sapiens, UniProt P41968)
Sequence of Melanocortin receptor 3 (P41968 whole entry): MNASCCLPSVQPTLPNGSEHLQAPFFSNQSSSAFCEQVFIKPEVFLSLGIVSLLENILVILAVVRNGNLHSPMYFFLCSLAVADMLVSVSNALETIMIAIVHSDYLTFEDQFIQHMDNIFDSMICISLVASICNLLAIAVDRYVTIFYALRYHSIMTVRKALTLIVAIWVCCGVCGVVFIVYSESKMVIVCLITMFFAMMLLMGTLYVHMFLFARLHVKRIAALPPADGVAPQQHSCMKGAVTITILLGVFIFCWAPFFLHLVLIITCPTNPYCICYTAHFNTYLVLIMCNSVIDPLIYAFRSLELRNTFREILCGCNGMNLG

Vasopressin V1a receptor = Vasopressin V1a receptor (Homo sapiens, UniProt P37288)
Sequence of Vasopressin V1a receptor (P37288 whole entry): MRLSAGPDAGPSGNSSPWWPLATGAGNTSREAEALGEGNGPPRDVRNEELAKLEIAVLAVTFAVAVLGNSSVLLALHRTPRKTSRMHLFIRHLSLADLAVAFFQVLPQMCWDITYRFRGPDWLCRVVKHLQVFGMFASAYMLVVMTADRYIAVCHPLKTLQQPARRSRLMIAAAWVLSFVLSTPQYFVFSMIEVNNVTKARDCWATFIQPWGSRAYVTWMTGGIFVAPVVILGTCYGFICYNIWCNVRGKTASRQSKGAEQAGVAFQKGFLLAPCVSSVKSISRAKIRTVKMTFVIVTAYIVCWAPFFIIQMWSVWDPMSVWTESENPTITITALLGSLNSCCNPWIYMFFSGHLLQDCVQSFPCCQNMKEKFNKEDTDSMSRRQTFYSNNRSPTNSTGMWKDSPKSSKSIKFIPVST

Histamine H3 receptor = Histamine H3 receptor (Homo sapiens, UniProt Q9Y5N1)
Sequence of Histamine H3 receptor (Q9Y5N1 whole entry): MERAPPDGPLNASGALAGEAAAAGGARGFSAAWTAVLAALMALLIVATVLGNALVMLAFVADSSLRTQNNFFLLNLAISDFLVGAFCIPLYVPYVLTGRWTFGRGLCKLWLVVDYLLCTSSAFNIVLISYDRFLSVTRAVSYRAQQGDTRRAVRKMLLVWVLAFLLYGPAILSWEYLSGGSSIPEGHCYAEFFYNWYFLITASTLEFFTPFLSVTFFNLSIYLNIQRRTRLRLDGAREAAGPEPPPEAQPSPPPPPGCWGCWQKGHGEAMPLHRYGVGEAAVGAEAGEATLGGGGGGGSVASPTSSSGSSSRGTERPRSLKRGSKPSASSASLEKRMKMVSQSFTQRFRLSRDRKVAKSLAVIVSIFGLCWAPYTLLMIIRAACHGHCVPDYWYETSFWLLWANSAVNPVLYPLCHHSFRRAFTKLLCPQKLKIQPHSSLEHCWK

[6] = target: T5, Alpha-2A adrenergic receptor; format: functional, cell-based; remark: listed apart in the source
[7] = target: 5-hydroxytryptamine receptor 2B (Homo sapiens, UniProt P41595); format: functional, cell-based
Sequence of 5-hydroxytryptamine receptor 2B (P41595 whole entry): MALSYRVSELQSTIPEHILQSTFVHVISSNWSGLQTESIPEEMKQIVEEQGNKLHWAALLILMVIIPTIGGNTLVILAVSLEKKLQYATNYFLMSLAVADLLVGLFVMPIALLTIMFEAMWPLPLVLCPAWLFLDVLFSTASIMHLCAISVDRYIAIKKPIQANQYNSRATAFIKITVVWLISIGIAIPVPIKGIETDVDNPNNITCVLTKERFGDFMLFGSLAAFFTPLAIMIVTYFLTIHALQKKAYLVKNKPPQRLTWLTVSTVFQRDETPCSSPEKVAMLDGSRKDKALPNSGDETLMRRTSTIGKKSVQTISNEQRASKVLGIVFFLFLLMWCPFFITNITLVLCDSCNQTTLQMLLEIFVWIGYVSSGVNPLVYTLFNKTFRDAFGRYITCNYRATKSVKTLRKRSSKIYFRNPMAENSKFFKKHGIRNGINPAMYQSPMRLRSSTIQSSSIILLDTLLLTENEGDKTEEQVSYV

Histamine H2 receptor = Histamine H2 receptor (Homo sapiens, UniProt P25021); format: functional, cell-based
Sequence of Histamine H2 receptor (P25021 whole entry): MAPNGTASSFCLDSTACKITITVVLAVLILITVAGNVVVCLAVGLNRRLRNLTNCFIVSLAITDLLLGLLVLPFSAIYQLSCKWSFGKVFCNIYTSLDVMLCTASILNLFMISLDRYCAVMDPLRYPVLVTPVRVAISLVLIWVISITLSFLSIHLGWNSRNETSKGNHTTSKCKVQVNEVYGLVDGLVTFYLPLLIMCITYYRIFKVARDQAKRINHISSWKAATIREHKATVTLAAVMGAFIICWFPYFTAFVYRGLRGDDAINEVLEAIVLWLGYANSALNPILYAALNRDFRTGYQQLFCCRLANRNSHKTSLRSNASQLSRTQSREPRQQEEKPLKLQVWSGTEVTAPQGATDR

Cannabinoid receptor 1 = Cannabinoid receptor 1 (Homo sapiens, UniProt P21554); format: functional, cell-based
[8] = target: 5-hydroxytryptamine receptor 2A (Homo sapiens, UniProt P28223); format: functional, cell-based
Sequence of 5-hydroxytryptamine receptor 2A (P28223 whole entry): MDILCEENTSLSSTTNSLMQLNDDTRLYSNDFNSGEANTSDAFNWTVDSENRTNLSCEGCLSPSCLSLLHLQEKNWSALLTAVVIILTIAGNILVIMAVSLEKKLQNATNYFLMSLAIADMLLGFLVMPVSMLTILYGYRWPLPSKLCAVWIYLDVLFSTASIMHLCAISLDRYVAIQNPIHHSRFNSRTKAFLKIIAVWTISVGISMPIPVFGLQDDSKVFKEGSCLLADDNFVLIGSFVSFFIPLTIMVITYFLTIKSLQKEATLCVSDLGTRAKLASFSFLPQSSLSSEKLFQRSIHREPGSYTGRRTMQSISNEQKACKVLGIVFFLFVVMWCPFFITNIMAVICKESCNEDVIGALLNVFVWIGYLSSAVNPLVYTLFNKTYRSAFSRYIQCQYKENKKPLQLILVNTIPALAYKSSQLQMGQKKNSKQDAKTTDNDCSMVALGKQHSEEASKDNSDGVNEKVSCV
Further: assay procedure not described here.

Compound	AC50 (B2 bradykinin receptor)	AC50 [1]	AC50 [2]	AC50 [3]	AC50 [4]	AC50 [5]	AC50 (Melanocortin receptor 3)	AC50 (Vasopressin V1a receptor)	AC50 (Histamine H3 receptor)	AC50 [6]	AC50 [7]	AC50 (Histamine H2 receptor)	AC50 (Cannabinoid receptor 1)	AC50 [8]
N=C(N)NC(=O)c1nc(Cl)c(N)nc1N [AMILORIDE]	> 30 µM	4.41 µM	> 30 µM	> 30 µM	> 30 µM	> 30 µM	> 30 µM	> 30 µM	> 30 µM	> 30 µM	> 30 µM	> 30 µM		
COc1ccc(-c2cc(=S)ss2)cc1 [ANETHOLTRITHION]	> 30 µM	7.4 µM	> 30 µM	> 10 µM	> 30 µM	> 30 µM	18 µM	8.7 µM	> 10 µM	> 30 µM	> 30 µM	> 30 µM	> 30 µM	> 30 µM
CC(C)(C)NCC(O)COc1ccccc1C#N (stereo unspecified) [BUNITROLOL]		14 µM	> 30 µM	> 30 µM		> 30 µM				> 30 µM	21 µM	> 30 µM	> 30 µM	> 30 µM
C[C@]12C=CC(=O)C=C1C(Cl)=C[C@@H]1[C@@H]2[C@@H](O)C[C@@]2(C)[C@H]1CC[C@]2(O)C(=O)CO [CLOPREDNOL]	> 3 µM	> 30 µM	> 30 µM	> 30 µM		> 30 µM	> 30 µM	> 30 µM	> 30 µM	> 30 µM	> 30 µM	> 30 µM	> 30 µM	> 30 µM
COc1cccc2c1C(=O)c1c(O)c3c(c(O)c1C2=O)C[C@@](O)(C(=O)CO)C[C@@H]3O[C@H]1C[C@H](N)[C@H](O)[C@H](C)O1 [DOXORUBICIN]	> 30 µM	> 30 µM	> 10 µM	> 30 µM	> 10 µM	12 µM	> 30 µM	> 30 µM	> 30 µM	> 10 µM	15 µM	> 10 µM	> 30 µM	
C[C@]12CCC(=O)C=C1[C@@H]1C[C@@H]1[C@H]1[C@@H]3[C@@H]4C[C@@H]4[C@@]4(CCC(=O)O4)[C@@]3(C)CC[C@@H]12 [DROSPIRENONE]	> 30 µM	> 30 µM	> 10 µM	> 30 µM	> 30 µM	> 30 µM	> 30 µM	> 30 µM	> 30 µM			> 30 µM		> 30 µM
CC(C)(Oc1ccc(Cl)cc1)C(=O)OCCOC(=O)c1cccnc1 [ETOFIBRATE]	> 30 µM		> 30 µM	> 30 µM	> 30 µM	> 30 µM	> 30 µM	> 30 µM	> 30 µM	> 30 µM	> 30 µM	> 30 µM	> 30 µM	> 30 µM
CCn1c(=O)c2c(nc(/C=C/c3ccc(OC)c(OC)c3)n2C)n(CC)c1=O [ISTRADEFYLLINE]		> 30 µM	> 30 µM				> 30 µM							> 30 µM
COc1ccc(C(=O)c2ccccc2)c(O)c1 [OXYBENZONE]		> 30 µM	> 30 µM	> 30 µM		> 30 µM				> 30 µM	> 30 µM	> 30 µM	> 30 µM	> 30 µM
C[C@]12C=CC(=O)C=C1CC[C@@H]1[C@@H]2[C@@H](O)C[C@@]2(C)[C@H]1CC[C@]2(O)C(=O)CO [PREDNISOLONE]	> 30 µM	> 10 µM	> 10 µM	> 30 µM	> 10 µM	> 10 µM	> 30 µM	> 30 µM	> 10 µM	> 10 µM	> 10 µM	> 10 µM	> 30 µM	
CCC(=O)c1ccc2c(c1)N(CC(C)N(C)C)c1ccccc1S2 (stereo unspecified) [PROPIOMAZINE]	> 10 µM	> 10 µM	1.1 µM	> 30 µM	> 10 µM	> 10 µM	> 10 µM	> 10 µM	> 10 µM	> 10 µM	0.23 µM	> 10 µM		> 10 µM
Cc1cn(-c2cc(NC(=O)c3ccc(C)c(Nc4nccc(-c5cnccn5)n4)c3)cc(C(F)(F)F)c2)cn1 [RADOTINIB]		> 30 µM	> 30 µM				> 30 µM							> 30 µM
Cc1ccc(O)c([C@H](CCN(C(C)C)C(C)C)c2ccccc2)c1 [TOLTERODINE]		> 10 µM		> 10 µM	> 10 µM	> 10 µM			> 30 µM	> 10 µM	> 10 µM	> 10 µM	> 30 µM	
CC1(C)O[C@@H]2C[C@H]3[C@@H]4CCC5=CC(=O)C=C[C@]5(C)[C@@]4(F)[C@@H](O)C[C@]3(C)[C@]2(C(=O)CO)O1 [TRIAMCINOLONE ACETONIDE]	> 30 µM	> 30 µM	> 30 µM	> 30 µM	> 30 µM	> 30 µM	> 30 µM		> 30 µM	> 30 µM	> 30 µM	> 30 µM	> 30 µM	
Oc1cc(Cl)ccc1Oc1ccc(Cl)cc1Cl [TRICLOSAN]	> 30 µM	> 30 µM	> 30 µM			> 30 µM	> 30 µM	> 30 µM	> 30 µM	> 30 µM	> 30 µM	> 30 µM	> 30 µM	> 30 µM
